Legend:
Type in all cases: cell-based
HSC-T6 [1] = assay: Inhibition of NF-kappaB (unknown origin) expressed in TNFalpha-stimulated rat HSC-T6 cells assessed as reduction of HSC activation at 50 ug/ml treated 30 mins before TNFalpha stimulation measured after 6 hrs by bioluminescence based luciferase reporter gene assay relative to control
[2] = Cytotoxicity against rat HSC-T6 cells
HSC-T6 [3] = assay: Inhibition of NF-kappaB (unknown origin) expressed in TNFalpha-stimulated rat HSC-T6 cells assessed as reduction of HSC activation at 10 ug/ml treated 30 mins before TNFalpha stimulation measured after 6 hrs by bioluminescence based luciferase reporter gene assay relative to control; conditions: Homo sapiens

Row | Compound | inhibition (HSC-T6 [1]) | other results
1 | COc1c2c(cc3c1-c1c(cc4c(c1OC)OCO4)[C@H](OC(=O)c1ccccc1)[C@@](C)(O)[C@@H](C)C3)OCO2 | 71.8% | 
2 | C/C=C(\C)C(=O)O[C@H]1c2cc(OC)c(OC)c(OC)c2-c2c(cc(O)c(OC)c2OC)C[C@H](C)[C@]1(C)O | 43.2% | 
3 | COc1cc2c(c(OC)c1OC)-c1c(cc3c(c1OC)OCO3)C[C@H](C)[C@](C)(O)[C@H]2OC(=O)c1ccccc1 [GOMISIN C] |  | Activity [2]: Toxic
4 | COc1cc(C[C@@H](C)[C@@H](C)Cc2cc(O)c(OC)c(OC)c2)cc(O)c1OC [PREGOMISIN] |  | Activity [2]: Toxic
5 | COc1cc2c(c(OC)c1OC)-c1c(cc(O)c(OC)c1OC)C[C@H](C)[C@](C)(O)[C@@H]2OC(=O)c1ccccc1 | 27.9% | 
6 | COc1cc([C@@H]2c3cc(OC)c(O)cc3C(=O)[C@@H](C)[C@H]2C)ccc1O | 46.4% | 
7 | COc1cc2c(c(OC)c1OC)-c1c(cc(O)c(OC)c1OC)C[C@H](C)[C@H](C)[C@@H]2O | 49.2% | 
8 | C/C=C(/C)C(=O)O[C@H]1c2cc(OC)c(OC)c(OC)c2-c2c(cc3c(c2OC)OCO3)C[C@H](C)[C@@]1(C)O | 6.64% | 
9 | SILYMARIN |  | inhibition (HSC-T6 [3]): 51.4%
10 | C/C=C(/C)C(=O)O[C@H]1c2cc3c(c(OC)c2-c2c(cc4c(c2OC)OCO4)C[C@H](C)[C@]1(C)O)OCO3 | 34.8% | 
11 | COc1cc2c(c(O)c1OC)-c1c(cc(OC)c(OC)c1OC)C[C@@H](C)[C@@H](C)C2 | 69% | 
12 | COc1cc2c(c(OC)c1OC)-c1c3cc4c(c1O[C@](C)([C@H](C)CO)C(=O)O[C@@H]2[C@@H](C)[C@@H](C)C3)OCO4 | 4.87% | 
